# Laboratory results: patent publication US20250230193A1, “CYCLIC COMPOUND HAVING SELECTIVE KRAS INHIBITORY EFFECT ON HRAS AND NRAS” (CHUGAI SEIYAKU KABUSHIKI KAISHA, priority 2022, published 2025)
# *1 amine or outer side, *2 acyl side, *3 side chain or, on linkers, in order; H or OH if unused. Where a SMILES comes first, the peptide text is derived from it. Bridges are numbered along the chain shown (N, C = ends). [ ]: non-standard residue; d: D form. The star is where a group is joined. hPhe(3,5-F2-4-CF3) = N[C@@H](CCc1cc(F)c(C(F)(F)F)c(F)c1)C(=O)O; hPhe(3-Cl-4-CF3) = N[C@@H](CCc1ccc(C(F)(F)F)c(Cl)c1)C(=O)O; NPrPhe(4-CF3) = CCCN[C@@H](Cc1ccc(C(F)(F)F)cc1)C(=O)O; NMeGly(cPent) = CN[C@H](C(=O)O)C1CCCC1; Pro(4,4-F2) = O=C(O)[C@@H]1CC(F)(F)CN1; X13 = CCC[C@](C)(N[*:1])C(=O)[*:2]; Hyp = O=C(O)[C@@H]1C[C@@H](O)CN1; NMeD = CN[C@@H](CC(=O)O)C(=O)O; NMeL = CN[C@@H](CC(C)C)C(=O)O; NMeAbu = CC[C@H](NC)C(=O)O; Morpholide = C1CN(*)CCO1; NMeA = CN[C@@H](C)C(=O)O; Ac5c = NC1(C(=O)O)CCCC1; Aze = O=C(O)[C@@H]1CCN1; Sar = CNCC(=O)O
# Tests used:
# [1] = molecular target: GDP-bound HRAS wild-type protein (Homo sapiens, UniProt P01112); test: Binding to HRAS by surface plasmon resonance (SPR), Single Cycle Kinetics; conditions: for HRAS/KRAS (ratio of KD value with respect to HRAS to KD value with respect to KRAS): GDP-bound HRAS wild-type vs GDP-bound KRAS wild-type
# GDP-bound HRAS wild-type protein, sequence (P01112 whole entry): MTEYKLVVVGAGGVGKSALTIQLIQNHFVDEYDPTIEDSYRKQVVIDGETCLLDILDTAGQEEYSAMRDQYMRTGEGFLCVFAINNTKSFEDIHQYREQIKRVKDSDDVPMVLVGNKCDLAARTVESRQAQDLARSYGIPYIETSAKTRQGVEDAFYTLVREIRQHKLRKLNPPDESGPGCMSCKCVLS
# [2] = molecular target: GDP-bound NRAS wild-type protein (Homo sapiens, UniProt P01111); test: Binding to NRAS by surface plasmon resonance (SPR), Single Cycle Kinetics; conditions: for NRAS/KRAS (ratio of KD value with respect to NRAS to KD value with respect to KRAS): GDP-bound NRAS wild-type vs GDP-bound KRAS wild-type
# GDP-bound NRAS wild-type protein, sequence (P01111 whole entry): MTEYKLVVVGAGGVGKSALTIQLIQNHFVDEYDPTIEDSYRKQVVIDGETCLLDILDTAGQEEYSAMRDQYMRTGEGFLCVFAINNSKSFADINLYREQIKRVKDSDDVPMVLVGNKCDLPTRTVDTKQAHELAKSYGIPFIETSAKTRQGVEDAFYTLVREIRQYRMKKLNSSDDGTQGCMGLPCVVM
smiles,measurement,setting,value
CCO[C@@H]1C[C@H]2C(=O)NC3(CCC3)C(=O)N(C)[C@@H](C3CCCC3)C(=O)N(C)[C@H](C(=O)N(C)C)CC(=O)N(C)[C@@H](CC)C(=O)N[C@@H]([C@@H](C)CC)C(=O)N(C)CC(=O)N(C)[C@H]3CCCCN(C3=O)[C@@H](Cc3ccc(C(F)(F)F)cc3)C(=O)N(C)CC(=O)N[C@@H](CCc3cc(Cl)c(C(F)(F)F)c(Cl)c3)C(=O)N2C1 [PP0985],HRAS/KRAS (ratio of KD value with respect to HRAS to KD value with respect to KRAS),"[1]; KD ratio, SPR",C (A compound having a KD ratio of 0.1 or more and less than 3 is denoted as C)
same,NRAS/KRAS (ratio of KD value with respect to NRAS to KD value with respect to KRAS),"[2]; KD ratio, SPR",C (A compound having a KD ratio of 0.1 or more and less than 3 is denoted as C)
CCCN1C(=O)CN(C)C(=O)[C@@H]2CCN2C(=O)[C@H]([C@@H](C)CC)NC(=O)[C@H](CC(C)C)N(C)C(=O)C[C@@H](C(=O)N2CCOCC2)N(C)C(=O)[C@H](C2CCCC2)N(C)C(=O)C2(CCCC2)NC(=O)[C@@H]2C[C@@H](OC)CN2C(=O)[C@H](CCc2ccc(C(F)(F)F)c(Cl)c2)NC(=O)CN(C)C(=O)[C@@H]1Cc1ccc(C(F)(F)F)cc1 [PP0309] ([NMeL]I[Aze][Sar][NPrPhe(4-CF3)][Sar][hPhe(3-Cl-4-CF3)][Hyp](Me)[Ac5c][NMeGly(cPent)][NMeD]-Morpholide; lactam N-11),HRAS/KRAS (ratio of KD for GDP-bound HRAS wild-type to KD for KRAS),[1]; SPR,B (a compound having 3 or more and less than 10 is denoted as B)
same,NRAS/KRAS (ratio of KD for GDP-bound NRAS wild-type to KD for KRAS),[2]; SPR,B (a compound having 3 or more and less than 10 is denoted as B)
CCCOC[C@H]1C(=O)N[C@@H]([C@@H](C)CC)C(=O)N(C2CC2)CC(=O)N(C)[C@H]2C/C=C\CCN(C2=O)[C@@H](Cc2ccc(C)cc2)C(=O)N(C)CC(=O)N[C@@H](CCc2ccc(C(F)(F)F)c(OC)c2)C(=O)N2C[C@H](OCC)C[C@H]2C(=O)N(C)C2(CCC2)C(=O)N(C)[C@@H](C(CC)CC)C(=O)N(C)[C@H](C(=O)N(C)C)CC(=O)N1C [PP2327],HRAS/KRAS (ratio of KD value with respect to HRAS to KD value with respect to KRAS),[1]; SPR,A (a compound having 10 or more and less than 20 is denoted as A)
same,NRAS/KRAS (ratio of KD value with respect to NRAS to KD value with respect to KRAS),[2]; SPR,A (a compound having 10 or more and less than 20 is denoted as A)
CCO[C@@H]1C[C@H]2C(=O)NC3(CCC3)C(=O)N(C)[C@@H](C3CCCC3)C(=O)N(C)[C@H](C(=O)N(C)C)CC(=O)N(C)[C@@H](CC3CCCC3)C(=O)N[C@@H]([C@@H](C)CC)C(=O)N(C)CC(=O)N(C)[C@H]3C/C=C\CCN(C3=O)[C@@H](Cc3ccc(C)cc3)C(=O)N(C)CC(=O)N[C@@H](CCc3ccc(C(F)(F)F)c(CC)c3)C(=O)N2C1 [PP2672],HRAS/KRAS (ratio of KD value with respect to GDP-bound HRAS wild-type protein to KD value with respect to KRAS),[1]; class symbols,B (a compound having 3 or more and less than 10 is denoted as B)
same,NRAS/KRAS (ratio of KD value with respect to GDP-bound NRAS wild-type protein to KD value with respect to KRAS),[2]; class symbols,B (a compound having 3 or more and less than 10 is denoted as B)
CCC[C@@H]1C[C@H]2C(=O)NC3(CC(C)(C)C3)C(=O)N(C)[C@@H](C3CCCC3)C(=O)N(C)[C@H](C(=O)N(C)C)CC(=O)N(C)[C@@H](CCC)C(=O)N[C@@H]([C@@H](C)CC)C(=O)N(C)CC(=O)N(C)[C@H]3C/C=C\CCN(C3=O)[C@@H](Cc3ccc(C)cc3)C(=O)N(C)CC(=O)N[C@@H](CCc3ccc(C(F)(F)F)c(Cl)c3)C(=O)N2C1 [PP2214],HRAS/KRAS (ratio of KD value with respect to HRAS to KD value with respect to KRAS),[1]; SPR,A (a compound having 10 or more and less than 20 is denoted as A)
same,NRAS/KRAS (ratio of KD value with respect to NRAS to KD value with respect to KRAS),[2]; SPR,A (a compound having 10 or more and less than 20 is denoted as A)
"CCCN1C(=O)[C@@H]2CCN2C(=O)[C@H](C)N(C)C(=O)[C@H]([C@@H](C)CC)NC(=O)[C@H](CC)N(C)C(=O)C[C@@H](C(=O)N2CCOCC2)N(C)C(=O)[C@H](C2CCCC2)N(C)C(=O)C2(CCCC2)NC(=O)[C@@H]2CC(F)(F)CN2C(=O)[C@H](CCc2ccc(C(F)(F)F)c(Cl)c2)NC(=O)CN(C)C(=O)[C@@H]1Cc1ccc(C(F)(F)F)cc1 [PP0206] ([NMeAbu]I[NMeA][Aze][NPrPhe(4-CF3)][Sar][hPhe(3-Cl-4-CF3)][Pro(4,4-F2)][Ac5c][NMeGly(cPent)][NMeD]-Morpholide; lactam N-11)",HRAS/KRAS (ratio of KD for GDP-bound HRAS wild-type to KD for KRAS),[1]; SPR,B (a compound having 3 or more and less than 10 is denoted as B)
same,NRAS/KRAS (ratio of KD for GDP-bound NRAS wild-type to KD for KRAS),[2]; SPR,C (A compound having a KD ratio of 0.1 or more and less than 3 is denoted as C)
CC[C@H](C)[C@@H]1NC(=O)[C@H](CC)N(C)C(=O)C[C@@H](C(=O)N(C)C)N(C)C(=O)[C@H](C2CCCC2)N(C)C(=O)C2(CCC2)NC(=O)[C@@H]2CCCCN2C(=O)[C@H](CCc2cc(F)c(C(F)(F)F)c(F)c2)NC(=O)CN(C)C(=O)[C@H](Cc2ccc(C(F)(F)F)cc2)N2CC/C=C\C[C@@H](C2=O)N(C)C(=O)CN(C)C1=O [PP1136],HRAS/KRAS (ratio of KD value with respect to HRAS to KD value with respect to KRAS),"[1]; KD ratio, SPR",A (a compound having 10 or more and less than 20 is denoted as A)
same,NRAS/KRAS (ratio of KD value with respect to NRAS to KD value with respect to KRAS),"[2]; KD ratio, SPR",A (a compound having 10 or more and less than 20 is denoted as A)
"CCCN1C(=O)[C@@H]2CCN2C(=O)CN(C)C(=O)[C@H]([C@@H](C)CC)NC(=O)[C@H](CC(C)C)N(C)C(=O)C[C@@H](C(=O)N2CCOCC2)NC(=O)[C@H](C2CCCC2)N(C)C(=O)C2(CCCC2)NC(=O)[C@@H]2CC(F)(F)CN2C(=O)[C@H](CCc2ccc(C(F)(F)F)c(Cl)c2)NC(=O)CN(C)C(=O)[C@@H]1Cc1ccc(C(F)(F)F)cc1 [PP0351] ([NMeL]I[Sar][Aze][NPrPhe(4-CF3)][Sar][hPhe(3-Cl-4-CF3)][Pro(4,4-F2)][Ac5c][NMeGly(cPent)]D-Morpholide; lactam N-11)",HRAS/KRAS (ratio of KD for GDP-bound HRAS wild-type to KD for KRAS),[1]; SPR,B (a compound having 3 or more and less than 10 is denoted as B)
same,NRAS/KRAS (ratio of KD for GDP-bound NRAS wild-type to KD for KRAS),[2]; SPR,C (A compound having a KD ratio of 0.1 or more and less than 3 is denoted as C)
CCO[C@@H]1C[C@H]2C(=O)NC3(CCC3)C(=O)N(C)[C@@H](C3CCCC3)C(=O)N(CCC3CCC3)[C@H](C(=O)N(C)C)CC(=O)N(C)[C@@H](CC)C(=O)N[C@@H]([C@@H](C)CC)C(=O)N(C)CC(=O)N(C)[C@H]3CCCCN(C3=O)[C@@H](Cc3ccc(C(F)(F)F)cc3)C(=O)N(C)CC(=O)N[C@@H](CCc3cc(F)c(C(F)(F)F)c(F)c3)C(=O)N2C1 [PP0645],HRAS/KRAS (ratio of KD value with respect to GDP-bound HRAS wild-type protein to KD value with respect to KRAS),[1]; SPR,B (a compound having 3 or more and less than 10 is denoted as B)
same,NRAS/KRAS (ratio of KD value with respect to GDP-bound NRAS wild-type protein to KD value with respect to KRAS),[2]; SPR,B (a compound having 3 or more and less than 10 is denoted as B)
"CCCN1C(=O)[C@@H]2CCN2C(=O)CN(C)C(=O)[C@H]([C@@H](C)CC)NC(=O)[C@H](CC(C)C)N(C)C(=O)C[C@@H](C(=O)N2CCOCC2)N(C)C(=O)[C@H](C2CCCC2)N(C)C(=O)[C@](C)(CCC)NC(=O)[C@@H]2CCCN2C(=O)[C@H](CCc2cc(F)c(C(F)(F)F)c(F)c2)NC(=O)CN(C)C(=O)[C@@H]1Cc1ccc(C(F)(F)F)cc1 [PP0794] ([NMeL]I[Sar][Aze][NPrPhe(4-CF3)][Sar][hPhe(3,5-F2-4-CF3)]P[X13][NMeGly(cPent)][NMeD]-Morpholide; lactam N-11)",HRAS/KRAS (ratio of KD value with respect to GDP-bound HRAS wild-type protein to KD value with respect to KRAS),[1]; SPR,B (a compound having 3 or more and less than 10 is denoted as B)
same,NRAS/KRAS (ratio of KD value with respect to GDP-bound NRAS wild-type protein to KD value with respect to KRAS),[2]; SPR,C (A compound having a KD ratio of 0.1 or more and less than 3 is denoted as C)
